Assay [1] deals with collagen-induced arthritis. Kind of assay: Collagen-induced arthritis model, indomethacin sustained release composition (Example 6). The format is in vivo, Lewis rats.
Description: (§1) During the 14-day study period, the rats were examined 3 times a week for the following outcomes: • Body weight loss, which is one of the parameters for evaluating the severity of arthritis. • Clinical Visual Arthritis Score, which is a visual score which correlates with the severity of arthritis. It was graded using an articular index of each paw, ranging from 0 to 4 (0=no edema or erythema on the foot pad; 1=slight edema and erythema on the foot pad; 2=mild edema and erythema on the foot pad; 3=moderate edema and erythema on the entire foot pad and the ankle; 4=severe edema and joint rigidity of the ankle, foot and digits). The Clinical Visual Arthritis Score for each rat was the sum of the articular index of both hind paws, with a maximum score of 8. • Hind paw volume and swelling. The hind paw volume was measured by UGO Plethysmometer 7149 measuring system. The final volume data was normalized with the average body weight (ml/kg) and edema was defined as the increase in paw volume on the day of measurement relative to day 0.
An in vivo evaluation of the effect of the indomethacin sustained release composition on arthritis was performed using 18 female Lewis rats (BioLASCO Taiwan Co, Ltd., Taiwan).
The arthritis treatments were initiated at the peak of the clinical visual arthritis score, which occurred at day 19. Eighteen rats were randomly divided into three groups (6 rats in each group): (1) control group (without any treatment, labeled “Control” in FIG. 9); (2) free indomethacin group (2 mg/kg indomethacin per dose, labeled “Indomethacin (2 mg/kg) in FIG. 9); and (3) indomethacin sustained release composition group (2 mg/kg indomethacin per dose; labeled “Indomethacin-BioSeizer (2 mg/kg) in FIG. 9). The rats in each group were given no treatment (control group), daily subcutaneous injection around the arthritis joints of free indomethacin or indomethacin sustained release composition, from day 19 to day 23.
In assay [2] the test system is collagen-induced arthritis.
Description: as §1
The test system of assay [3] is arthritis induced with bovine type II collagen. Kind of assay: Single IA injection of DSP sustained release compositions in arthritic rats (Example 3). The format is in vivo, Lewis rats. How it is done: Sixteen female rats, aged 8 weeks, were used in the study. The average body weight of the rats was from about 180 to about 200 grams.
To induce arthritis, each rat was immunized with 200 μg of bovine type II collagen (4 mg/ml stocked in 10 mM acetic acid, commercially available from Elastin Products, Owensville, USA) emulsified in Freund's incomplete adjuvant (commercially available from Sigma Chemical Co., USA) on day 0 and then again on day 7.
The rats were randomized into the following 4 study groups:
Group 1: 4 rats each received 100 μl of saline per paw (labeled “Saline Control in FIGS. 1-8)
Group 3: 4 rats each received 100 μl of the sustained release composition 1 per paw, wherein the concentration of DSP is 1 mg/ml (labeled “TLC399_1 mg/mg in FIGS. 1-4 and “TLC399_I 4 mg/ml in FIGS. 5-8).
Group 4: 4 rats each received 100 μl of the sustained release composition 2 per paw, wherein the concentration of DSP is 1.4 mg/ml (labeled “TLC399_1.4 mg/mg in FIGS. 1-4 and “TLC399_II 1.4 mg/ml in FIGS. 5-8).
The control or the DSP formulation was administered to both hind paws of the rat as a once only IA injection on day 19.

Assay [4] shares this test system. Nature of the assay: Four daily IA injections of DSP sustained release compositions in arthritic rats (Example 4). The format is in vivo, Lewis rats. The settings on record: four daily IA injections day 26 to day 29.
Description: as §1
Assay [5] relates to collagen-induced arthritis. Kind of assay: Collagen-induced arthritis model, etanercept sustained release composition (Example 8). The format is in vivo, Lewis rats.
Where [6] appears, read: day 30, doses on day 23 and day 26.

Where two headings read alike, the source gives them in different places.

For `COc1ccc2c(c1)c(CC(=O)O)c(C)n2C(=O)c1ccc(Cl)cc1` [free indomethacin, Indomethacin sodium], in assay [1] (before the first dose on day 19), the “average arthritis score before treatment” value turned out to be 7.4. This compound displayed an average arthritis score in assay [1] (day 20, 2 mg/kg indomethacin per dose, daily from day 19 to day 23) of 5. Besides, the arthritis score in assay [1] (day 25, after termination of treatment on day 23) is given as 8. Besides, the “time after termination of treatment until arthritis signs returned / amelioration continued” value in assay [1] (treatment day 19 to day 23) amounted to 2 days.

For the compound `CN(Cc1cnc2nc(N)nc(N)c2n1)c1ccc(C(=O)N[C@@H](CCC(=O)[O-])C(=O)[O-])cc1.[Na+].[Na+]` [free methotrexate, methotrexate sodium], in assay [2] (before the first dose on day 23), the “average arthritis score before treatment” value was determined as 3.7. The average arthritis score in assay [2] (day 26, 1 mg/kg methotrexate per dose on day 23 and day 26) is 1.4. The arthritis score in assay [2] (setting [6]) amounted to 3.5. Moreover, the “time after termination of treatment until arthritis signs returned / amelioration continued” value in assay [2] (doses on day 23 and day 26) turned out to be 4 days.

For the compound “dexamethasone sodium phosphate [free DSP]”, the “paw swelling thickness, both paws” value in assay [3] (day 23, volume normalized with body weight) was “around 7.5 ml/kg”. Moreover, the “clinical visual arthritis score” value in assay [3] (day 26, single IA injection on day 19) is given as 4.5. Further, in assay [3] (prior to the IA injection (day 19), sum of both hind paws, maximum 8), the “clinical visual arthritis score, average” value is listed as 4.0. The “day on which both paws became swollen again” value in assay [3] (single IA injection on day 19) was found to be 23 days. Besides, in assay [4] (day 30), the “clinical visual arthritis score, lowest recorded” value is 3. Further, in assay [4], the “day on which paws were swollen again / first sign of paw swelling” value stood at 31 days and the “day on which relapsed arthritis signs became severe” value stood at 33 days.

As for etanercept [free etanercept], the average arthritis score in assay [5] (day 26, 50 mg/kg etanercept per dose on day 23 and day 26) is reported as 2.4. Also, the arthritis score in assay [5] (setting [6]) was found to be 4. For the same compound, in assay [5] (doses on day 23 and day 26), the “time after termination of treatment until arthritis relapsed / amelioration continued” value is listed as 3 days.

Values taken from patent US11793755B2, “Pharmaceutical composition for intraarticular delivery” (TAIWAN LIPOSOME CO., LTD., priority 2012, dated 2023).
